Laboratory results taken from patent US10392379B2, “Hepatitis B core protein modulators” (Assembly Biosciences, Inc., priority 2015, dated 2019).

Legend:
[1] = system: HBV; experiment: Viral load production in AD38 cells by quantitative PCR of the core sequence; assay type: cell-based; details: Hepatitis B virus, 144 h, 10 μM compound, 6 days, supernatant qPCR, relative to DMSO control, read-out: AD38 Viral Load (%) (VL with cmpd/VL in DMSO control) at 10 μM
Description: (§1) AD38 cells were then re-suspended with 10 mL of Treatment Medium and counted. Wells of a collagen coated 96-well NUNC microtiter plate were seeded at 50,000/well in 180 μL of Treatment Medium, and 20 μL of in treatment media with either 10% DMSO (Control) or a 10× solution of compound in 10% DMSO was added. Plates were incubated for 6 days at 37° C.
Viral load production was assayed by quantitative PCR of the core sequence. […] The PCR mixture was incubated at 45° C. for 5 minutes, then 95° C. for 10 min, followed by 40 cycles of 10 seconds at 95° C. and 20 seconds at 60° C. Viral load was quantitated against known standards by using ViiA™ 7 Software. Viral load in the supernatant from wells with treated cells were compared against viral load in supernatant from DMSO control wells (≥3 per plate).

[2] = system: AD38 cells; experiment: Viability of AD38 cells (Promega CellTiter-Glo); assay type: cell-based; details: 10 μM compound, 6 days, DMSO controls = 100%
Description: as §1
At the end of compound treatment period cell viability was assessed using a Promega CellTiter-Glo protocol. All supernatant was removed the previously treated 96-well microtiter plate, and 50 μL Tetracycline-free treatment medium (DMEM/F12 (1:1), 1× Pen/step (cat#: 30-002-CL, Mediatech, Inc), with 2% FBS, Tet-system approved (cat#: 631106, Clontech), and 1% DMSO was added back to each well. Another 50 μL of CellTiter-Glo reagent solution (Promega, G7573) was then added at room temperature and the contents mixed for 2 minutes on an orbital shaker to induce cell lysis. This was followed by incubation at room temperature for 10 minutes to stabilize the luminescent signal. The luminescence was recorded for 0.2 seconds per well on a Tecan multimode platereader (Infinite M1000 pro). The luminescent signal from each well was normalized against that of untreated (DMSO) control wells. All results in Table 3 were reported with percent viability (with controls being 100%).

Structure (SMILES) | activity at 10 µM [1] | AD38 Viability Normalized Result (cmpd/DMSO %) at 10 μM [2]
COc1ccc(Cc2ccc(CNC(=O)c3ccc4c(c3)NC(=O)c3ccccc3O4)cn2)cc1 [Compound 837-A, N-((6-(4-methoxybenzyl)pyridin-3-yl)methyl)-11-oxo-10, 11-dihydrodibenzo[b,f][1, 4]oxazepine-8-carboxamide] | 5.6% | 105%
O=C(NCc1ccc(-c2ccccc2CO)nc1)c1ccc2c(c1)NC(=O)c1ccccc1S2(=O)=O [Compound 843] | 18.8% | 103%
O=C(NCc1cnc(-c2ccccc2CO)nc1)c1ccc2c(c1)NC(=O)c1ccccc1S2(=O)=O [Compound 844] | 10.2% | 103%
N#Cc1ccc(-c2ccc(CNC(=O)c3ccc4c(c3)NC(=O)c3ccccc3S4(=O)=O)cn2)cc1 [Compound 867] | 0.6% | 86%
NC(=O)c1ccc(-c2ccc(CNC(=O)c3ccc4c(c3)NC(=O)c3ccccc3S4(=O)=O)cn2)cc1 [Compound 868, N-((6-(4-carbamoylphenyl)pyridin-3-yl)methyl)-11-oxo-10,11-dihydrodibenzo[b,f][1,4]thiazepine-8-carboxamide 5,5-dioxide] | 27.7% | 103%
N#Cc1ccc(-c2ccc(CNC(=O)c3ccc4c(c3)NC(=O)c3ccccc3S4(=O)=O)nc2)cc1 [Compound 869, N-((5-(4-cyanophenyl)pyridin-2-yl)methyl)-11-oxo-10,11-dihydrodibenzo[b, f][1,4]thiazepine-8-carboxamide 5,5-dioxide] | 13.3% | 83%
NC(=O)c1ccc(-c2ccc(CNC(=O)c3ccc4c(c3)NC(=O)c3ccccc3S4(=O)=O)nc2)cc1 [Compound 870, N-((5-(4-carbamoylphenyl)pyridin-2-yl)methyl)-11-oxo-10, 11-dihydrodibenzo[b,f][1,4]thiazepine-8-carboxamide 5,5-dioxide] | 82.7% | 106%
N#Cc1ccc(-c2ncc(CNC(=O)c3ccc4c(c3)NC(=O)c3ccccc3S4(=O)=O)cn2)cc1 [Compound 871, N-((2-(4-cyanophenyl)pyrimidin-5-yl)methyl)-11-oxo-10, 11-dihydrodibenzo[b,f][1,4]thiazepine-8-carboxamide 5,5-dioxide] | 1.3% | 96%
NC(=O)c1ccc(-c2ncc(CNC(=O)c3ccc4c(c3)NC(=O)c3ccccc3S4(=O)=O)cn2)cc1 [Compound 872, N-((2-(4-carbamoylphenyl)pyrimidin-5-yl)methyl)-11-oxo-10, 11-dihydrodibenzo[b,f][1,4]thiazepine-8-carboxamide 5,5-dioxide] | 5.2% | 104%
O=C(NCc1ccc(C(F)(F)F)nc1)c1ccc2c(c1)NC(=O)c1ccccc1S2(=O)=O [Compound 875] | 26.1% | 108%
O=C(NCc1cnc(C(F)(F)F)nc1)c1ccc2c(c1)NC(=O)c1ccccc1S2(=O)=O [Compound 876] | 65.5% | 101%
